Laboratory results: patent US5008252A, “Process for inhibiting herpes simplex virus-specified thymidine kinase” (The University of North Carolina at Chapel Hill, priority 1987, dated 1991)

System: HSV-1 (strain KOS)-infected HeLa BU cells
Assay: Virus yield assay
Type: cell-based
Conditions: for reversal of antiviral activity by 5'-Et-dThd: 100 μM 5'-Et-dThd, ACV 15 μM, DHPG 2 μM, FIAC 1 μM, BVDU 1 μM, 5'-NH2-dThd 500 μM; for % PFU with a 5'-Et-dThd conc. of 2.5 μM: drug (μM as in row; None = 5'-Et-dThd alone) plus 2.5 μM 5'-Et-dThd; for % PFU with a 5'-Et-dThd conc. of 25 μM: drug (μM as in row; None = 5'-Et-dThd alone) plus 25 μM 5'-Et-dThd; for % PFU with a 5'-Et-dThd conc. of 0 μM: drug alone, drug μM in parentheses in row: ACV 15, FIAC 1, DHPG 2, BVDU 1, 5'-NH2-dThd 500
Protocol: Cell and virus growth inhibition. Cell growth inhibition and the virus yield assay were performed in accordance with the protocol described by Cheng, Y.-C., Grill, S.P., Ruth, J. and Bergstrom, D. E. (Antimicrob. Agents Chemother. 18:957-961 (1980)) with the exceptions that all studies were done using 5% dialyzed fetal bovine serum; the multiplicity of infection was 3 PFU/cell and Vero cells were used instead of CV-1 cells for titration in the virus yield assays.

[1] = Table II, drug (μM as in row; None = 5'-Et-dThd alone) plus 100 μM 5'-Et-dThd

Row | SMILES | reversal of antiviral activity by 5'-Et-dThd | % PFU with a 5'-Et-dThd conc. of 2.5 μM (Table II) | % PFU with a 5'-Et-dThd conc. of 25 μM (Table II) | % PFU with a 5'-Et-dThd conc. of 100 μM [1] | % PFU with a 5'-Et-dThd conc. of 0 μM (Table II) | % PFU with 100 μM 5'-Et-dThd relative to aphidicolin alone (0.2 μM aphidicolin plus 100 μM 5'-Et-dThd) | activity at 0.2 µM (Human alphaherpesvirus 1, HeLa, read-out: %PFU with a 5'-Et-dThd conc. of 0 μM) | %PFU with a 5'-Et-dThd conc. of 5 μM (Table III, aphidicolin 0.2 μM (None = 5'-Et-dThd alone) plus 5 μM 5'-Et-dThd) | %PFU with a 5'-Et-dThd conc. of 20 μM (Table III, aphidicolin 0.2 μM (None = 5'-Et-dThd alone) plus 20 μM 5'-Et-dThd) | % PFU with a 5'-Et-dThd conc. of 100 μM (Table III, aphidicolin 0.2 μM (None = 5'-Et-dThd alone) plus 100 μM 5'-Et-dThd)
1 | Nc1nc2c(ncn2COC(CO)CO)c(=O)[nH]1 [DHPG, 9-(1,3-dihydroxy-2-propoxymethyl) guanine] | 100 fold | 0.2% | 4% | 10% | 0.1% |  |  |  |  | 
2 | Nc1nc2c(ncn2COCCO)c(=O)[nH]1 [ACV, acyclovir] | 35 fold | 9% | 45% | 70% | 2% |  |  |  |  | 
3 | C[C@@]1(CO)[C@H](O)CC[C@@]2(C)[C@H]1CC[C@H]1C[C@@H]3C[C@@]12CC[C@]3(O)CO [Aphidicolin, aphidicolin] |  |  |  |  |  | less than one half | 54% | 65% | 45% | 21%
4 | Cc1cn([C@H]2C[C@H](O)[C@@H](CN)O2)c(=O)[nH]c1=O [5'-NH2-dThd, 5'-amino-dThd] | 250 fold | 0.3% | 3% | 50% | 0.2% |  |  |  |  | 
5 | O=c1[nH]c(=O)n([C@H]2C[C@H](O)[C@@H](CO)O2)cc1/C=C/Br [BVDU, (E)-5-(2-bromovinyl)-2'-deoxyuridine] | 15 fold | 9.5% | 13% |  | 0.9% |  |  |  |  | 
6 | Nc1nc(=O)n([C@@H]2O[C@H](CO)[C@@H](O)[C@@H]2F)cc1I [FIAC, fluoroido-arabinosyl-cytosine] | 98 fold | 26% | 59% |  | 0.6% |  |  |  |  | 
